As a reminder, the inhibition is how much of the control response was suppressed.

What all share (format): biochemical
Assay [1] addresses T1, Tek (Homo sapiens, UniProt Q02763).
T1 construct: amino acids 773-1124 of the cytoplasmic kinase domain of human Tek, N-terminally fused to GST; made in house; host or cells: Sf9 insect cells (baculovirus)
Put plainly: Recombinant GST-Tek (Tie-2) tyrosine kinase assay (33P into poly(Glu,Tyr)). The conditions noted are these: Examples 1 to 169. The text has this:
(Tie-2/Tek): The baculovirus donor vector pFbacG01 was used to generate a recombinant baculovirus that expressed the amino acid region amino acids 773-1124 of the cytoplasmic kinase domain of human Tek, N-terminally fused to GST (Provided by Dr. Marmé, Institute of Molecular Medicine, Freiburg, Germany based on a Research Collaboration). Tek was recloned into the pFbacG01 transfer vector by EcoRI excision and ligation into EcoRI digested pFbacG01 (FBG-Tie2/Tek).
Production of virus: Transfer vectors containing the kinase domains were transfected into the DH10Bac cell line (GIBCO) and plated on selective agar plates. Colonies without insertion of the fusion sequence into the viral genome (carried by the bacteria) are blue. Single white colonies were picked and viral DNA (bacmid) isolated from the bacteria by standard plasmid purification procedures. Sf9 cells or Sf21 cells were then transfected in 25 cm^2 flasks with the viral DNA using Cellfectin reagent.
Determination of small scale protein expression in Sf9 cells: Virus containing media was collected from the transfected cell culture and used for infection to increase its titer. Virus containing media obtained after two rounds of infection was used for large-scale protein expression. For large-scale protein expression 100 cm^2 round tissue culture plates were seeded with 5×10^7 cells/plate and infected with 1 mL of virus-containing media (approx. 5 MOIs). After 3 days the cells were scraped off the plate and centrifuged at 500 rpm for 5 min. Cell pellets from 10-20, 100 cm^2 plates, were resuspended in 50 mL of ice-cold lysis buffer (25 mMTris-HCl, pH7.5, 2 mMEDTA, 1% NP-40, 1 mM DTT, 1 mMP MSF). The cells were stirred on ice for 15 min and then centrifuged at 5000 rpms for 20 min.
Purification of GST-tagged proteins: The centrifuged cell lysate was loaded onto a 2 mL glutathione-sepharose column and washed three times with 10 mL of 25 mM Tris-HCl, pH 7.5, 2 mM EDTA, 1 mM DTT, 200 mM NaCl. The GST-tagged proteins were then eluted by 10 applications (1 mL each) of 25 mM Tris-HCl, pH 7.5, 10 mM reduced-glutathione, 100 mM NaCl, 1 mM DTT, 10% Glycerol and stored at −70° C.
Measure of enzyme activity: Tyrosine protein kinase assays with either purified GST-Ret, GST-Tek or GST-FGFR-3-K650E were carried out in a final volume of 30 μL with final concentrations of the following components: Ret included 15 ng of GST-Ret, 20 mM Tris-HCl, pH 7.5, 1 mM MnCl2, 10 mM MgCl2, 1 mM DTT, 3 μg/mL poly(Glu,Tyr) 4:1, 1% DMSO and 2.0 μM ATP (γ-[^33P]-ATP 0.1 μCi). Tek included 150 ng of GST-Tek, 20 mM Tris-HCl, pH 7.5, 3 mM MnCl2, 3 mM MgCl2, 1 mM DTT, 0.01 mM Na3VO4, 250 μg/mL PEG 20'000, 10 μg/mL poly(Glu,Tyr) 4:1, 1% DMSO and 4.0 μM ATP (γ-[^33P]-ATP 0.1 μCi). FGFR-3-K650E included 10 ng of GST-FGFR-3-K650E, 20 mM Tris-HCl, pH 7.5, 3 mM MnCl2, 3 mM MgCl2, 1 mM DTT, […], 10 μg/mL poly(Glu,Tyr) 4:1, 1% DMSO and 4.0 μM ATP (γ-[^33P]-ATP 0.1 μCi).The activity was assayed in the presence or absence of inhibitors, by measuring the incorporation of ^33P from [γ^33P] ATP into poly(Glu,Tyr) 4:1. The assay was carried out in 96-well plates at ambient temperature for 30 min under conditions described below and terminated by the addition of 50 μL of 125 mM EDTA. Subsequently, 60 μL of the reaction mixture were transferred onto Immobilon-PVDF membrane (Millipore) previously soaked for 5 min with methanol, rinsed with water, then soaked for 5 min with 0.5% H3PO4 and mounted on vacuum manifold with disconnected vacuum source. After spotting all samples, vacuum was connected and each well rinsed with 200 μL 0.5% H3PO4. Membranes were removed and washed 4× on a shaker with 1.0% H3PO4, once with ethanol. Membranes were counted after drying at ambient temperature, mounting in Packard TopCount 96-well frame, and addition of 10 μL/well of Microscint™ (Packard). […]

For assay [2], the target named is T2, KDR (Homo sapiens, UniProt P35968).
T2 construct: expressed in transfected cells; host or cells: CHO cells
Put plainly: Inhibitory activity against KDR (VEGF-R2), in vitro data of Examples 170 and 207. The conditions noted are these: 10 μM; Examples 1 to 169; read-out: KDR inhibition at 10 μM. The protocol: (Controls comprise medium without test compounds). After two hours of incubation at 37° C., recombinant VEGF is added; the final VEGF concentration is 20 ng/ml. After a further five minutes incubation at 37° C., the cells are washed twice with ice-cold PBS (phosphate-buffered saline) and immediately lysed in 100 μl lysis buffer per well. The lysates are then centrifuged to remove the cell nuclei, and the protein concentrations of the supernatants are determined using a commercial protein assay (BIORAD). The lysates can then either be immediately used or, if necessary, stored at −20° C. […] The plates are then washed and the remaining free protein-binding sites are saturated with 3% TopBlock® (Juro, Cat. # TB232010) in phosphate buffered saline with Tween 20® (polyoxyethylen(20)sorbitane monolaurate, ICI/Uniquema) (PBST). The cell lysates (20 μg protein per well) are then incubated in these plates overnight at 4° C. together with an antiphosphotyrosine antibody coupled with alkaline phosphatase (PY20:AP from Zymed). […] The luminescence is measured in a Packard Top Count Microplate Scintillation Counter.

The target in assay [3] is T3, FGFR3 (K650E) (Homo sapiens, UniProt P22607, K650E).
T3 construct: amino acids 411-806 of the cytoplasmic domain of human FGFR-3, N-terminally fused to GST; made in house; host or cells: Sf9 insect cells (baculovirus)
Put plainly: Recombinant GST-FGFR-3-K650E tyrosine kinase assay (33P into poly(Glu,Tyr)). The conditions noted are these: 10 μM; Examples 1 to 169; read-out: FGFR3 (K650E) inhibition at 10 μM.

T1 sequence (Q02763 773-1124): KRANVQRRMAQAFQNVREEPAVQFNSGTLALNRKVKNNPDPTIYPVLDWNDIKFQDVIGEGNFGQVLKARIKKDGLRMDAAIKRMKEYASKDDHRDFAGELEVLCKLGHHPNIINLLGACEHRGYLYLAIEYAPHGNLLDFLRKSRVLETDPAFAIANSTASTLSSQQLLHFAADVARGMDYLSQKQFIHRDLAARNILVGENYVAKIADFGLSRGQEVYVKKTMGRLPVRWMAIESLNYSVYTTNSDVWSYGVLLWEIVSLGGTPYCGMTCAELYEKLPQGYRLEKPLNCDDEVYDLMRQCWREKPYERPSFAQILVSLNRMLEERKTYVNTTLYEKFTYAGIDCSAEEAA
T2 sequence (P35968 20-1356): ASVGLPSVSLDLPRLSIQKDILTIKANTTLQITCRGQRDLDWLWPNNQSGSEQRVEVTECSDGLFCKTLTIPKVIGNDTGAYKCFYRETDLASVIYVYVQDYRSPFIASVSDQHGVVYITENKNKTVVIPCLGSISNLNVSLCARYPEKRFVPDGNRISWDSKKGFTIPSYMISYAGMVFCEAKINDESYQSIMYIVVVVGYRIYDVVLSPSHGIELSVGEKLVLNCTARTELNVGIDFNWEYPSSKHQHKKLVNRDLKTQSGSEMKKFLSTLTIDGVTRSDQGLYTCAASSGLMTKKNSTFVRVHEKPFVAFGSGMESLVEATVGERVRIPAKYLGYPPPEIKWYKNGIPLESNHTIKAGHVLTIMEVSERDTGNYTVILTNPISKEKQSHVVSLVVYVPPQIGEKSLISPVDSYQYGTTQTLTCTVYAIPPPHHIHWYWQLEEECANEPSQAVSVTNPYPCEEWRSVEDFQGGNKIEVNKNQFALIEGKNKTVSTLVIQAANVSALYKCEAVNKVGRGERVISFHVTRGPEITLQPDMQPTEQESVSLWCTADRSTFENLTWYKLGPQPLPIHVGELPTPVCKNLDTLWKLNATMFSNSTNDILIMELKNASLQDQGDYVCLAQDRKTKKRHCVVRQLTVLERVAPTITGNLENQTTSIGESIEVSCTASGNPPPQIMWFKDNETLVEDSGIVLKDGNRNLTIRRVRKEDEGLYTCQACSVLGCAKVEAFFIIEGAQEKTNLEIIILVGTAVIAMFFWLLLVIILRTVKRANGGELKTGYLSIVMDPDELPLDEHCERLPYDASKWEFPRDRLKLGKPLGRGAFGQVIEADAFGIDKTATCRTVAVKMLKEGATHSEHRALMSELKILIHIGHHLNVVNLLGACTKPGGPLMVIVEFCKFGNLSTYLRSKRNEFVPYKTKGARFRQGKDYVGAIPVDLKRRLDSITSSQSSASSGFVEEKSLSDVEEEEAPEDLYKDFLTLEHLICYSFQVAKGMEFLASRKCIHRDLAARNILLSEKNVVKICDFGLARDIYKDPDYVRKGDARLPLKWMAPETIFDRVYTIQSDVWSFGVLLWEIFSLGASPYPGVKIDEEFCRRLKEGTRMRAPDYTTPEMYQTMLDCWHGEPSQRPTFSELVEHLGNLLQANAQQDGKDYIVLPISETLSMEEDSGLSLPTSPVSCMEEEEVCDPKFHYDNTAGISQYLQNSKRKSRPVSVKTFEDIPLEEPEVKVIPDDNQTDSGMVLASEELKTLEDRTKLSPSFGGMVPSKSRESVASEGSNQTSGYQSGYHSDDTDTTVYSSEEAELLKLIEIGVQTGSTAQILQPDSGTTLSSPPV
T3 sequence (P22607 411-806 K650E): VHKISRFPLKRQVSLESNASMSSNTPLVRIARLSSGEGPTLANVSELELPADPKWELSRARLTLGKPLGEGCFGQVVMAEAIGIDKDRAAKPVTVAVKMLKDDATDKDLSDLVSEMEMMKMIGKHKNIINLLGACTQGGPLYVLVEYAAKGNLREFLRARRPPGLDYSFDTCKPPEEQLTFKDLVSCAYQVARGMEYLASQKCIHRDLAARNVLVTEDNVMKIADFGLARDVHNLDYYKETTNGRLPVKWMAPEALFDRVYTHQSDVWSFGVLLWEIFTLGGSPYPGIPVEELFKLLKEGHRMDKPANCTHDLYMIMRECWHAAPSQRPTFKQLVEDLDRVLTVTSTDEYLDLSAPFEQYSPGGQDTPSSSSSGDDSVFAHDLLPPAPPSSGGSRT

On to `COc1cc(OC)c(Cl)c(NC(=O)N(C)c2cc(Nc3cccc(N4CCN(C)CC4)c3)ncn2)c1Cl` [Example 3, 3-(2,6-Dichloro-3,5-dimethoxy-phenyl)-1-methyl-1-{6-[3-(4-methyl-piperazin-1-yl)-phenylamino]-pyrimidin-4-yl}-urea], for which the inhibition at 10 µM in assay [1] was in the range of 12 to 100%; in assay [2], 67 to 100%.

`Cc1cccc(Cl)c1NC(=O)Nc1cc(Nc2ccc(N3CCN(C)CC3)cc2)ncn1` [Example 6, 1-(2-Chloro-6-methyl-Phenyl)-3-{6-[4-(4-methyl-piperazin-1-yl)-phenyl-amino]-pyrimidin-4-yl}-urea]: the inhibition at 10 µM in assay [3] was in the range of 27 to 100%; in assay [1], 12 to 100%; in assay [2], 67 to 100%.

For the molecule `Cc1cccc(Cl)c1NC(=O)Nc1cc(Nc2cccc(N3CCN(C)CC3)c2)ncn1` [Example 7, 1-(2-Chloro-6-methyl-phenyl)-3-{6-[3-(4-methyl-piperazin-1-yl)-phenyl-amino]-pyrimidin-4-yl}-urea], the figures for the inhibition at 10 µM in assay [3], in assay [1] and in assay [2] were 27 to 100%, 12 to 100% and 67 to 100%, respectively.

Turning to `COc1cccc(NC(=O)Nc2cc(Nc3ccc(N4CCN(C)CC4)cc3)ncn2)c1` [Example 8, 1-(3-Methoxy-phenyl)-3-{6-[4-(4-methyl-piperazin-1-yl)-phenylamino]-py-rimidin-4-yl}-urea], the inhibition at 10 µM in assay [3] lay within 27 to 100%; in assay [1] it was 12 to 100%; in assay [2], 67 to 100%.

With `COc1cccc(NC(=O)Nc2cc(Nc3cccc(N4CCN(C)CC4)c3)ncn2)c1` [Example 9, 1-(3-Methoxy-phenyl)-3-{6-[3-(4-methyl-piperazin-1-yl)-phenylamino]-py-rimidin-4-yl}-urea], the inhibition at 10 µM in assay [3] lay in the range of 27 to 100%; in assay [1] it was 12 to 100%; in assay [2], 67 to 100%.

Take `CN1CCN(c2ccc(Nc3cc(NC(=O)Nc4cc(Cl)cc(Cl)c4)ncn3)cc2)CC1` [Example 10, 1-(3,5-Dichloro-phenyl)-3-{6-[4-(4-methyl-piperazin-1-yl)-phenylamino]-pyrimidin-4-yl}-urea]: the figures for the inhibition at 10 µM in assay [3], in assay [1] and in assay [2] were 27 to 100%, 12 to 100% and 67 to 100%, respectively.

For the molecule `CN1CCN(c2cccc(Nc3cc(NC(=O)Nc4cc(Cl)cc(Cl)c4)ncn3)c2)CC1` [Example 11, 1-(3,5-Dichloro-phenyl)-3-{6-[3-(4-methyl-piperazin-1-yl)-phenylamino]-pyrimidin-4-yl}-urea], the figures for the inhibition at 10 µM in assay [3], in assay [1] and in assay [2] were 27 to 100%, 12 to 100% and 67 to 100%, respectively.

On to `COc1ccc(Cl)c(NC(=O)Nc2cc(Nc3ccc(N4CCN(C)CC4)cc3)ncn2)c1` [Example 28, 1-(2-Chloro-5-methoxy-phenyl)-3-{6-[4-(4-methyl-piperazin-1-yl)-phenyl-amino]-pyrimidin-4-yl}-urea], for which the inhibition at 10 µM in assay [1] was 12 to 100%; in assay [2] it was 67 to 100%.

Take `COc1ccc(Cl)c(NC(=O)Nc2cc(Nc3ccc(N4CCN(C)CC4)cc3)ncn2)c1Cl` [Example 36, 1-(2,6-Dichloro-3-methoxy-phenyl)-3-{6-[4-(4-methyl-piperazin-1-yl)-phenyl-amino]-pyrimidin-4-yl}-urea]: the figures for the inhibition at 10 µM in assay [1] and in assay [2] were 12 to 100% and 67 to 100%, respectively.

`COc1cc(NC(=O)Nc2cc(Nc3ccc(N4CCN(C)CC4)cc3)ncn2)c(Cl)c(OC)c1` [Example 40, 1-(2-Chloro-3,5-dimethoxy-phenyl)-3-{6-[4-(4-methyl-Piperazin-1-yl)-phenyl-amino]-pyrimidin-4-yl}-urea]: the figures for the inhibition at 10 µM in assay [1] and in assay [2] were 12 to 100% and 67 to 100%, respectively.

Take `COc1cc(NC(=O)N(C)c2cc(Nc3ccc(N4CCN(C)CC4)cc3)ncn2)cc(OC)c1` [Example 47, 3-(3,5-Dimethoxy-phenyl)-1-methyl-1-{6-[4-(4-methyl-piperazin-1-yl)-phenylamino]-pyrimidin-4-yl}-urea]: the inhibition at 10 µM fell in the range of 12 to 100% in assay [1] and 67 to 100% in assay [2].

Consider `COc1cc(NC(=O)N(C)c2cc(Nc3ccc(N4CCN(C)CC4)cc3)ncn2)c(Cl)c(OC)c1` [Example 50, 3-(2-Chloro-3,5-dimethoxy-phenyl)-1-methyl-1-{6-[4-(4-methyl-piperazin-1-yl)-phenylamino]-pyrimidin-4-yl}-urea], for which the inhibition at 10 µM was 12 to 100% in assay [1] and 67 to 100% in assay [2].

Turning to `CCN(C(=O)Nc1cc(OC)cc(OC)c1Cl)c1cc(Nc2ccc(N3CCN(C)CC3)cc2)ncn1` [Example 55, 3-(2-Chloro-3,5-dimethoxy-phenyl)-1-ethyl-1-{6-[4-(4-methyl-piperazin-1-yl)-phenylamino]-pyrimidin-4-yl}-urea], the inhibition at 10 µM in assay [1] lay in the range of 12 to 100%; in assay [2], 67 to 100%.

`COc1cc(OC)c(Cl)c(NC(=O)N(C)c2cc(Nc3cccc(CN(C)C)c3)ncn2)c1Cl` [Example 144, 3-(2,6-Dichloro-3,5-dimethoxy-phenyl)-1-[6-(3-dimethylaminomethyl-phenylamino)-pyrimidin-4-yl]-1-methyl-urea]: the inhibition at 10 µM in assay [1] is 12 to 100%; in assay [2] it was 67 to 100%.

`COc1cc(OC)c(Cl)c(NC(=O)N(C)c2cc(Nc3ccc(CCCN(C)C)cc3)ncn2)c1Cl` [Example 147, 3-(2,6-Dichloro-3,5-dimethoxy-phenyl)-1-{6-[4-(3-dimethylamino-propyl)-phenylamino]-pyrimidin-4-yl}-1-methyl-urea]: the figures for the inhibition at 10 µM in assay [1] and in assay [2] were 12 to 100% and 67 to 100%, respectively.

For `COc1cc(OC)c(Cl)c(NC(=O)N(C)c2cc(Nc3ccc(OCCN4CCCC4)cc3)ncn2)c1Cl` [Example 148, 3-(2,6-Dichloro-3,5-dimethoxy-phenyl)-1-methyl-1-{6-[4-(2-pyrrolidin-1-yl-ethoxy)-phenylamino]-pyrimidin-4-yl}-urea], the inhibition at 10 µM was 12 to 100% in assay [1] and 67 to 100% in assay [2].

The values are drawn from patent publication US8552002B2 (Novartis AG, priority 2004, dated 2013).
